Measurements from patent US9708314B2, “Heterocyclic amide compound” (NISSAN CHEMICAL INDUSTRIES, LTD., priority 2013, dated 2017).

How the values were obtained:
Format in all cases: in vivo
[1] = test system: directly sowed Oryza sativa; assay: Test Example 4: effect on crop by application to foliage (diluvial soil, plastic box); settings: application to foliage, application herbicide amount 320 g/ha
How it was run: (§1)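 Plants were grown in sterilized diluvial soil in a greenhouse at 25-30° C for 14 days, then sprayed on stems and leaves with water-diluted emulsion formulation at set rates in g/ha. Weed control and crop injury were scored 3 weeks after treatment on a 0-5 herbicidal-ratio scale, from 0 (≤5%) to 5 (≥90%).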

[2] = test system: Beta vulgaris ssp. vulgaris; assay: as above; settings: application to foliage, application herbicide amount 320 g/ha
How it was run: as §1

Brassica campestris L. = assay: as above; settings: application to foliage, application herbicide amount 320 g/ha
How it was run: as §1

Zea mays = assay: as above; settings: application to foliage, application herbicide amount 320 g/ha
How it was run: as §1

Glycine max = assay: as above; settings: application to foliage, application herbicide amount 320 g/ha
How it was run: as §1

Triticum aestivum = assay: as above; settings: application to foliage, application herbicide amount 320 g/ha
How it was run: as §1

Chenopodium album = assay: Test Example 4: herbicidal effect by application to foliage (diluvial soil, plastic box); settings: application to foliage, application herbicide amount 320 g/ha
How it was run: as §1

Alopecurus myosuroides = assay: as above; settings: application to foliage, application herbicide amount 320 g/ha
How it was run: as §1

Avena fatua = assay: as above; settings: application to foliage, application herbicide amount 320 g/ha
How it was run: as §1

Apera spica-venti. = assay: as above; settings: application to foliage, application herbicide amount 320 g/ha
How it was run: as §1

Setaria viridis = assay: as above; settings: application to foliage, application herbicide amount 320 g/ha
How it was run: as §1

[3] = test system: Echinochloa crus-galli var. crus-galli; assay: as above; settings: application to foliage, application herbicide amount 320 g/ha
How it was run: as §1

Galium spurium = assay: as above; settings: application to foliage, application herbicide amount 320 g/ha
How it was run: as §1

Digitaria ciliaris = assay: as above; settings: application to foliage, application herbicide amount 320 g/ha
How it was run: as §1

Abutilon theophrasti = assay: as above; settings: application to foliage, application herbicide amount 320 g/ha
How it was run: as §1

Lolium multiflorum Lam. = assay: as above; settings: application to foliage, application herbicide amount 320 g/ha
How it was run: as §1

Stellaria media = assay: as above; settings: application to foliage, application herbicide amount 320 g/ha
How it was run: as §1

Amaranthus retroflexus = assay: as above; settings: application to foliage, application herbicide amount 320 g/ha
How it was run: as §1

Veronica persica = assay: as above; settings: application to foliage, application herbicide amount 320 g/ha
How it was run: as §1

[4] = test system: transplanted Oryza sativa; assay: Test Example 1: effect on crop, application before weed generation in submerged conditions; settings: Application herbicide amount 320 g/ha; Seventeenth Table
How it was run: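 Pre-emergence application to water surface of submerged pots (4 cm depth, alluvial soil) on sowing day, with 2.5-leaf rice transplanted; emulsion diluted to g/ha rates. Grown in greenhouse at 25–30 °C; 0–5 herbicidal/crop-effect score after three weeks.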

| Compound | b: effect on crop, directly sowed Oryza sativa [1] | f: effect on crop, Beta vulgaris ssp. vulgaris [2] | g: effect on crop, Brassica campestris L. (Brassica campestris L.) | c: effect on crop, Zea mays (Zea mays) | d: effect on crop, Glycine max (Glycine max) | e: effect on crop, Triticum aestivum (Triticum aestivum) | O: herbicidal effect on Chenopodium album (Chenopodium album) | J: herbicidal effect on Alopecurus myosuroides (Alopecurus myosuroides) | I: herbicidal effect on Avena fatua (Avena fatua) | L: herbicidal effect on Apera spica-venti. (Apera spica-venti.) | G: herbicidal effect on Setaria viridis (Setaria viridis) | H: herbicidal effect on Echinochloa crus-galli var. crus-galli [3] | Q: herbicidal effect on Galium spurium (Galium spurium) | F: herbicidal effect on Digitaria ciliaris (Digitaria ciliaris) | M: herbicidal effect on Abutilon theophrasti (Abutilon theophrasti) | K: herbicidal effect on Lolium multiflorum Lam. (Lolium multiflorum Lam.) | P: herbicidal effect on Stellaria media (Stellaria media) | N: herbicidal effect on Amaranthus retroflexus (Amaranthus retroflexus) | R: herbicidal effect on Veronica persica (Veronica persica) | a: transplanted Oryza sativa (effect on crop grade) [4] |
| --- | --- | --- | --- | --- | --- | --- | --- | --- | --- | --- | --- | --- | --- | --- | --- | --- | --- | --- | --- | --- |
| Cn1nnnc1NC(=O)c1ccc(C(F)(F)F)n2c(-c3ccc(Cl)cc3)nnc12 [2-012] | 5 (Herbicidal ratio of 90% or more (almost completely withered)) | 5 (Herbicidal ratio of 90% or more (almost completely withered)) | 4 (Herbicidal ratio of 70% or more and less than 90%) | 3 (Herbicidal ratio of 40% or more and less than 70%) | 4 (Herbicidal ratio of 70% or more and less than 90%) | 4 (Herbicidal ratio of 70% or more and less than 90%) | 5 (Herbicidal ratio of 90% or more (almost completely withered)) | 2 (Herbicidal ratio of 20% or more and less than 40%) | 3 (Herbicidal ratio of 40% or more and less than 70%) | 2 (Herbicidal ratio of 20% or more and less than 40%) | 1 (Herbicidal ratio of 5% or more and less than 20%) | 4 (Herbicidal ratio of 70% or more and less than 90%) | 4 (Herbicidal ratio of 70% or more and less than 90%) | 4 (Herbicidal ratio of 70% or more and less than 90%) | 5 (Herbicidal ratio of 90% or more (almost completely withered)) | 2 (Herbicidal ratio of 20% or more and less than 40%) | 5 (Herbicidal ratio of 90% or more (almost completely withered)) | 5 (Herbicidal ratio of 90% or more (almost completely withered)) | 4 (Herbicidal ratio of 70% or more and less than 90%) | 1 (Herbicidal ratio of 5% or more and less than 20%) |
| CSc1nnc2c(C(=O)Nc3nnnn3C)ccc(C(F)(F)F)n12 [2-013] | 5 (Herbicidal ratio of 90% or more (almost completely withered)) | 5 (Herbicidal ratio of 90% or more (almost completely withered)) | 4 (Herbicidal ratio of 70% or more and less than 90%) | 3 (Herbicidal ratio of 40% or more and less than 70%) | 4 (Herbicidal ratio of 70% or more and less than 90%) | 4 (Herbicidal ratio of 70% or more and less than 90%) | 5 (Herbicidal ratio of 90% or more (almost completely withered)) | 3 (Herbicidal ratio of 40% or more and less than 70%) | 4 (Herbicidal ratio of 70% or more and less than 90%) | 4 (Herbicidal ratio of 70% or more and less than 90%) | 5 (Herbicidal ratio of 90% or more (almost completely withered)) | 5 (Herbicidal ratio of 90% or more (almost completely withered)) | 4 (Herbicidal ratio of 70% or more and less than 90%) | 5 (Herbicidal ratio of 90% or more (almost completely withered)) | 5 (Herbicidal ratio of 90% or more (almost completely withered)) | 3 (Herbicidal ratio of 40% or more and less than 70%) | 5 (Herbicidal ratio of 90% or more (almost completely withered)) | 5 (Herbicidal ratio of 90% or more (almost completely withered)) | 4 (Herbicidal ratio of 70% or more and less than 90%) | 3 (Herbicidal ratio of 40% or more and less than 70%) |
| COCCOCc1nnc2c(C(=O)Nc3nnnn3C)ccc(C(F)(F)F)n12 [2-014] | 5 (Herbicidal ratio of 90% or more (almost completely withered)) | 5 (Herbicidal ratio of 90% or more (almost completely withered)) | 4 (Herbicidal ratio of 70% or more and less than 90%) | 3 (Herbicidal ratio of 40% or more and less than 70%) | 4 (Herbicidal ratio of 70% or more and less than 90%) | 4 (Herbicidal ratio of 70% or more and less than 90%) | 5 (Herbicidal ratio of 90% or more (almost completely withered)) | 4 (Herbicidal ratio of 70% or more and less than 90%) | 4 (Herbicidal ratio of 70% or more and less than 90%) | 4 (Herbicidal ratio of 70% or more and less than 90%) | 5 (Herbicidal ratio of 90% or more (almost completely withered)) | 5 (Herbicidal ratio of 90% or more (almost completely withered)) | 4 (Herbicidal ratio of 70% or more and less than 90%) | 5 (Herbicidal ratio of 90% or more (almost completely withered)) | 5 (Herbicidal ratio of 90% or more (almost completely withered)) | 4 (Herbicidal ratio of 70% or more and less than 90%) | 5 (Herbicidal ratio of 90% or more (almost completely withered)) | 5 (Herbicidal ratio of 90% or more (almost completely withered)) | 5 (Herbicidal ratio of 90% or more (almost completely withered)) | 4 (Herbicidal ratio of 70% or more and less than 90%) |
| Cn1nnnc1NC(=O)c1ccc(C(F)(F)F)n2c(COCC(F)(F)F)nnc12 [2-015] | 4 (Herbicidal ratio of 70% or more and less than 90%) | 4 (Herbicidal ratio of 70% or more and less than 90%) | 3 (Herbicidal ratio of 40% or more and less than 70%) | 2 (Herbicidal ratio of 20% or more and less than 40%) | 2 (Herbicidal ratio of 20% or more and less than 40%) | 2 (Herbicidal ratio of 20% or more and less than 40%) | 5 (Herbicidal ratio of 90% or more (almost completely withered)) | 2 (Herbicidal ratio of 20% or more and less than 40%) | 2 (Herbicidal ratio of 20% or more and less than 40%) | 2 (Herbicidal ratio of 20% or more and less than 40%) | 4 (Herbicidal ratio of 70% or more and less than 90%) | 5 (Herbicidal ratio of 90% or more (almost completely withered)) | 3 (Herbicidal ratio of 40% or more and less than 70%) | 5 (Herbicidal ratio of 90% or more (almost completely withered)) | 5 (Herbicidal ratio of 90% or more (almost completely withered)) | 2 (Herbicidal ratio of 20% or more and less than 40%) | 4 (Herbicidal ratio of 70% or more and less than 90%) | 5 (Herbicidal ratio of 90% or more (almost completely withered)) | 3 (Herbicidal ratio of 40% or more and less than 70%) | 1 (Herbicidal ratio of 5% or more and less than 20%) |
